Experimental data reported in patent US9249147B2, “Tyrosine kinase inhibitors” (CHEMBRIDGE CORPORATION, priority 2008, dated 2016).
In brackets after ≈: the same amount, converted by molar mass. Read-outs that look alike come from different tables or passages of the source. Each block holds one compound with its values, some of them ahead of it.

What was measured:
IGF1R = target: T1, IGF1R (Homo sapiens, UniProt P08069); experiment: IGF1R kinase assay; type: biochemical; conditions: Table 1; read-out: IGF1R IC50
T1 construct: 6×His- or GST-tagged kinase domain fragments of the corresponding RTKs expressed in baculovirus system; host or cells: baculovirus system
T1 sequence (P08069 999-1274 limits assumed): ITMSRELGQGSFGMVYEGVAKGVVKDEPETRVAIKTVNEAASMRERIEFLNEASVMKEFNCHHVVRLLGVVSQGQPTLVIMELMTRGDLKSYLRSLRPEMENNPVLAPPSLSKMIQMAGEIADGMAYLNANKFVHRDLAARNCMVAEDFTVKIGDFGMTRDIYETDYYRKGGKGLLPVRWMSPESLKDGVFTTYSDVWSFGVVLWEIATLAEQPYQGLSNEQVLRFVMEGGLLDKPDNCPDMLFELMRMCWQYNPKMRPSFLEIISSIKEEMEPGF
Procedure: (§1) To determine inhibition of several tyrosine kinases, such as IGF1R, InsR, Alk, TrkA and Jak2, kinase assays are conducted using either Kinase-Glo (Promega) or AlphaScreen (PerkinElmer) kinase assay platforms. The Kinase-Glo Luminescent Kinase Assay is a homogeneous method for measuring kinase activity by determining the amount of ATP remaining after a kinase reaction. The luminescent signal is proportional to the amount of ATP and inversely proportional to the amount of kinase activity. Tyrosine kinase PT66 AlphaScreen Assay is a high-sensitivity homogeneous, anti-phosphotyrosine antibody-mediated luminescent proximity method measuring incorporation of phosphate in synthetic poly(Glu-Tyr) substrate. The kinase preparations used consist of purified recombinant, 6×His- or GST-tagged kinase domain fragments of the corresponding RTKs expressed in baculovirus system.
(§2) Compounds with a range of concentrations 40 μM, 20 μM, 10 μM, 5 μM, 2.5 μM, 1.25 μM, 0.625 μM, 0.3125 μM, 0.15625 μM and 0.078125 μM were incubated with NPM-ALK, which was produced in insect cells as a 6×HIS-tagged fusion protein and purified using nickel-charged resin chromatography, for 30 minutes at RT in the presence of 10 μM ATP and 7.0 ng biotinylated poly-GT. A 1:1 mixture of […] and donor beads was then added to the reaction and incubated for an additional 60 minutes at RT. The assay was conducted on a MultiPROBE liquid handling workstation (PerkinElmer) in a 384-well plate format with a total reaction volume of 40 μL per well. Working stocks of all compounds were dissolved in 100% DMSO and serial dilutions of the compounds were performed using kinase buffer (50 mM Tris-HCl (pH 7.5), 5 mM MgCl2, 5 mM MnCl2, 2 mM DTT (added freshly before use), 0.01% Tween-20) containing 5% DMSO. […] Data were collected as optical readings at 520-680 nm on a Fusion™ microplate analyzer (PerkinElmer), and IC50 and Ki values calculated using PRISM3.0 software (GraphPad Software, Inc., San Diego, Calif.). The same assay was also used with minor modifications to assess the IC50 and Ki values for selected compounds against five other tyrosine kinases (IRK, IGF1R, Flt3, Abl, Src), all of which were purchased from commercial vendors. PolyGT-Biotin was bought from CIS Biointernational Cat. #61GT0BLD; ATP—from Sigma Cat. # A7699; sodium orthovanadate—from Sigma Cat. #S-6508; phosphotyrosine (PT66) assay kit from PerkinElmer Cat. #6760602M; automated workstation tips (20 μL): PerkinElmer Cat. #6000657; and OptiPlate-384 (white)—from PerkinElmer Cat. #6007299.

IRK = target: T2, IRK (Homo sapiens, UniProt P06213); experiment: IRK (insulin receptor kinase) assay; type: biochemical; conditions: Table 1; read-out: IRK IC50
T2 construct: 6×His- or GST-tagged kinase domain fragments of the corresponding RTKs expressed in baculovirus system; host or cells: baculovirus system
T2 sequence (P06213 1023-1298 limits assumed): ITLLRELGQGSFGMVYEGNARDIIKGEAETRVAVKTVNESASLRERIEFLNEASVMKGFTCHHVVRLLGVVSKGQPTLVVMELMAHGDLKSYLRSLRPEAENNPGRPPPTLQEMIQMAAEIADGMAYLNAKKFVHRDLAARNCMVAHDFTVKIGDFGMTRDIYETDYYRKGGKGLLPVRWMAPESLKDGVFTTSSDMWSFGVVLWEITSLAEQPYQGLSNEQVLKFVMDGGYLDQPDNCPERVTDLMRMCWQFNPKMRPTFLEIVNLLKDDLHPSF
Procedure: as §1, §2

ALK = ALK (Homo sapiens, UniProt Q9UM73); experiment: ALK kinase assay (Kinase-Glo / AlphaScreen, purified NPM-ALK); type: biochemical; parameters: fused to the complete intracytoplasmic portion of ALK containing the functional tyrosine kinase domain; 6xHis; made in house; host or cells: insect cells; the other entry of the earlier key: NPM1 (P06748, Nucleophosmin); conditions: Table 1; read-out: ALK IC50
Chain of ALK (Q9UM73 with tags, fused parts or gaps): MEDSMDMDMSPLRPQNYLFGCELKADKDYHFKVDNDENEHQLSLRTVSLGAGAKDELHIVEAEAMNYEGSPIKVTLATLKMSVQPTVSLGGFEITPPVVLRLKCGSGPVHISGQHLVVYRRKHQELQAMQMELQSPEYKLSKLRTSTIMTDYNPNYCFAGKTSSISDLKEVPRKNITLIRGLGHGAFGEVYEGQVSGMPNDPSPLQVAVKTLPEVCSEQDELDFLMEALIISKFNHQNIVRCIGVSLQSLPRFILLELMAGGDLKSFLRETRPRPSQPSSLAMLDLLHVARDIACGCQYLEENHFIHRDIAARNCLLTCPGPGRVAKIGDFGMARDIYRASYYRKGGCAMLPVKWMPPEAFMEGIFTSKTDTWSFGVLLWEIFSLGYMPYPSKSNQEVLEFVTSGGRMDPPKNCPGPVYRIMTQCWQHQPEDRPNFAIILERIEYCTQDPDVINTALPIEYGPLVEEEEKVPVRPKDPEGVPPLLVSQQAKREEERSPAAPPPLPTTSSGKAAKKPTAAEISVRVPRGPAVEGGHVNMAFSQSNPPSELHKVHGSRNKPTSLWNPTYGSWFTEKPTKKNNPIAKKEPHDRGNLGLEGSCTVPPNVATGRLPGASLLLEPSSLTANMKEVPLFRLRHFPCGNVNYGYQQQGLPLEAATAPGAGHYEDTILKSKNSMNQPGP

[1] = Caco-2 (TC7) A-B Permeability test (pH 6.5/7.4); conditions: human, A-B Permeability (TC7, pH 6.5/7.4), test concentration 1.0E−05 M
[2] = Aqueous Solubility (PBS, pH 7.4); type: physicochemical; conditions: pH 7.4, 2.0E−04 M; for solubility: pH 7.4, PBS
hERG = hERG (Homo sapiens, UniProt Q12809); experiment: hERG Inhibition (Table 6E); type: cell-based; parameters: expressed in transfected cells; unit not given here
Chain of hERG (Q12809 whole entry): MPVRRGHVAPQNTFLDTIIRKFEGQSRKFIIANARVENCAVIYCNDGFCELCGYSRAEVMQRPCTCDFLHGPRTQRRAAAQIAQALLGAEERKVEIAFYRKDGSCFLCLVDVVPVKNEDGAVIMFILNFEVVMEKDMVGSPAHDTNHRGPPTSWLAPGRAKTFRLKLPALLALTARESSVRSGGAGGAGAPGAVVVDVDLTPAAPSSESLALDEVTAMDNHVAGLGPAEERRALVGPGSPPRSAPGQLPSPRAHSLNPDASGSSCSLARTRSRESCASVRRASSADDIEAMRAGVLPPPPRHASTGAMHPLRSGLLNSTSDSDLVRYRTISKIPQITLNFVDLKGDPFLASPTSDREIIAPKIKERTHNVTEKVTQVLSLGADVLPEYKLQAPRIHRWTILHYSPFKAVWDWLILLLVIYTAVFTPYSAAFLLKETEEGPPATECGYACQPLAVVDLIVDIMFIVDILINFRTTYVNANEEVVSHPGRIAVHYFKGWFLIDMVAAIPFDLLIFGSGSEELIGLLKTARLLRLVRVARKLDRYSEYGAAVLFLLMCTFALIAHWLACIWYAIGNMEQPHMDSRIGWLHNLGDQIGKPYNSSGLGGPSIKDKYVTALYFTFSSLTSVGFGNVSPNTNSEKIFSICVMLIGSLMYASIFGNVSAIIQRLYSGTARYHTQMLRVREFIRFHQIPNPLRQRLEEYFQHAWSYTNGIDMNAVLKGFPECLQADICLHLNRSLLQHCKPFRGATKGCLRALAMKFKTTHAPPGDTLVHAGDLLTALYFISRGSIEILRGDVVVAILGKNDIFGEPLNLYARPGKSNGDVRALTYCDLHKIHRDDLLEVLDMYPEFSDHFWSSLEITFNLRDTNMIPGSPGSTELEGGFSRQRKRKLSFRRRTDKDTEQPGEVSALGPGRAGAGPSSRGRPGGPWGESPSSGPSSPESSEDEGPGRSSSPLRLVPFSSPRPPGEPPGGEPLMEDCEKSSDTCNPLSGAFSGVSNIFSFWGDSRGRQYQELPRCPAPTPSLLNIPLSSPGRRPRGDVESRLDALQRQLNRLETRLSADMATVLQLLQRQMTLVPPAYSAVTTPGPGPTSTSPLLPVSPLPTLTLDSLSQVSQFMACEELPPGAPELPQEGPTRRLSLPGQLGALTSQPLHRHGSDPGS
Procedure: Compound (II) was initially tested at 1 μM concentration using a standard patch clamp protocol (Cerep ADMET Study 13170). The hERG channel was expressed in a human embryonic kidney (HEK293) cell line that lacks endogenous hERG channels. […] We have retested compound (II) in hERG assay in a range of lower concentrations to estimate IC50 of hERG inhibition more precisely (Qpatch 16 automated whole-cell patch clamp protocol in CHO-K1 cell line stably expressing hERG, Cerep hERG Study 13292). […] This kind of potency in hERG inhibition should not represent a significant clinical problem since the high degree of hERG inhibition would occur only at the compound concentrations above the expected therapeutic levels.

[3] = Caco-2, pH 6.5, Mean Recovery, mean of n = 2
[4] = Caco-2, pH 6.5, Permeability 1st, 1st replicate
[5] = Caco-2, pH 6.5, Permeability 2nd, 2nd replicate
[6] = Caco-2, pH 6.5, Present Recovery 1st, 1st replicate
[7] = Caco-2, pH 6.5, Present Recovery 2nd, 2nd replicate
[8] = Tables 9C, 9D, read-out: Solubility Mean
[9] = individual data, read-out: Solubility 1st/2nd
[10] = Caco-2, pH 6.5, Mean Permeability, mean of n = 2

IC50 (IGF1R): 0.25 to 1 µM
IC50 (IRK): 0.1 to 0.25 µM
IC50 (ALK): 0.01 to 0.1 µM
SMILES: Cc1ccsc1C[C@H](C)Nc1cc[nH]c(=O)c1-c1nc2cc3c(cc2[nH]1)CN(CCN1CCC[C@H]1C)C3=O

SMILES: COc1cc2c(c(OC)c1OC)-c1ccc(OC)c(=O)cc1[C@@H](NC(C)=O)CC2 [Colchicine]
recovery at 10 µM [1, 3]: 97%
Papp A→B at 10 µM [1, 4]: 9 nm/s
Papp A→B at 10 µM [1, 5]: 0.5 nm/s
recovery at 10 µM [1, 6]: 99%
recovery at 10 µM [1, 7]: 65%

Solubility 1st/2nd ([2]; individual data): 61.29 μm
solubility [2, 8]: 61.9 µM (≈ 23.3 µg/mL)
solubility [2, 9]: 62.5 µM (≈ 23.5 µg/mL)
SMILES: O=C(CCCN1CCC(O)(c2ccc(Cl)cc2)CC1)c1ccc(F)cc1 [Haloperidol]

Solubility 1st/2nd ([2]; individual data): 109.58 μm
solubility [2, 8]: 108 µM (≈ 57.5 µg/mL)
solubility [2, 9]: 107 µM (≈ 56.7 µg/mL)
SMILES: CC(=O)N1CCN(c2ccc(OCC3COC(Cn4ccnc4)(c4ccc(Cl)cc4Cl)O3)cc2)CC1 (stereo not drawn) [Ketoconazole, ketoconazole, reference compound]

Papp A→B at 10 µM [1, 10]: 60 nm/s
recovery at 10 µM [1, 3]: 90%
Papp A→B at 10 µM [1, 4]: 58 nm/s
Papp A→B at 10 µM [1, 5]: 62.1 nm/s
recovery at 10 µM [1, 6]: 91%
recovery at 10 µM [1, 7]: 88%
SMILES: CC(CCc1ccccc1)NCC(O)c1ccc(O)c(C(N)=O)c1 (stereo not drawn) [Labetalol]

Solubility 1st/2nd ([2]; individual data): 86.44 μm
solubility [2, 8]: 87 µM (≈ 21.9 µg/mL)
solubility [2, 9]: 87.7 µM (≈ 22.1 µg/mL)
SMILES: O=C1NC(=O)C(c2ccccc2)(c2ccccc2)N1 [Phenytoin]

Papp A→B at 10 µM [1, 10]: 6 nm/s
recovery at 10 µM [1, 3]: 95%
Papp A→B at 10 µM [1, 4]: 5.8 nm/s
Papp A→B at 10 µM [1, 5]: 6.4 nm/s
recovery at 10 µM [1, 6]: 82%
recovery at 10 µM [1, 7]: 109%
SMILES: CNC(=C[N+](=O)[O-])NCCSCc1ccc(CN(C)C)o1 [Ranitidine]

IC50 (IGF1R): 0.25 to 1 µM
IC50 (IRK): 0.1 to 0.25 µM
IC50 (ALK): 0.1 to 0.25 µM
SMILES: C[C@@H](Cc1cccs1)Nc1cc[nH]c(=O)c1-c1nc2cc3c(cc2[nH]1)C(=O)N(CCCN1CCCC1)C3 [drawing 259]

IC50 (IGF1R): 0.1 to 0.25 µM
IC50 (IRK): 0.1 to 0.25 µM
IC50 (ALK): < 0.01 µM
SMILES: Cc1ccc(F)cc1C[C@H](C)Nc1cc[nH]c(=O)c1-c1nc2c(C)c3c(cc2[nH]1)CN(CCN1CCCC1)C3=O [drawing 321]

IC50 (IGF1R): 0.1 to 0.25 µM
IC50 (IRK): 0.25 to 1 µM
IC50 (ALK): < 0.01 µM
SMILES: C[C@@H](Cc1cc(F)cc(F)c1F)Nc1cc[nH]c(=O)c1-c1nc2cc3c(cc2[nH]1)CN(CCN(C)C)C3=O [drawing 325]

IC50 (IGF1R): 0.25 to 1 µM
IC50 (IRK): 0.25 to 1 µM
IC50 (ALK): 0.01 to 0.1 µM
SMILES: C[C@@H](Cc1cc(F)cc(F)c1F)Nc1cc[nH]c(=O)c1-c1nc2cc3c(cc2[nH]1)CN(CCN1CCCC1)C3=O [drawing 327]

IC50 (IGF1R): 0.25 to 1 µM
IC50 (IRK): 0.1 to 0.25 µM
IC50 (ALK): < 0.01 µM
SMILES: C[C@@H](Cc1cc(F)ccc1Br)Nc1cc[nH]c(=O)c1-c1nc2cc3c(cc2[nH]1)CN(CCN1CCCC1)C3=O [drawing 330]

IC50 (IGF1R): > 1 µM
IC50 (IRK): 0.25 to 1 µM
IC50 (ALK): 0.01 to 0.1 µM
SMILES: Cc1ccc(F)cc1C[C@H](C)Nc1cc[nH]c(=O)c1-c1nc2cc3c(cc2[nH]1)CN(CCN1CCC[C@H]1C)C3=O [drawing 339]

IC50 (IGF1R): > 1 µM
IC50 (IRK): 0.25 to 1 µM
IC50 (ALK): < 0.01 µM
SMILES: C[C@@H]1CCCN1CCN1Cc2cc3[nH]c(-c4c(N[C@@H](C)Cc5cc(F)cc(F)c5F)cc[nH]c4=O)nc3cc2C1=O [drawing 340]

IC50 (IGF1R): > 1 µM
IC50 (IRK): 0.25 to 1 µM
IC50 (ALK): < 0.01 µM
SMILES: C[C@@H](Cc1c(F)c(F)cc(F)c1F)Nc1cc[nH]c(=O)c1-c1nc2cc3c(cc2[nH]1)CN(CCN1CCCC1)C3=O [drawing 345]

SMILES: Cc1ccc(F)cc1C[C@H](C)Nc1cc[nH]c(=O)c1-c1nc2cc3c(cc2[nH]1)C(=O)N(CCN1CCCC1)C3 [drawing 364]
hERG Inhibition (hERG; 25): 22.5
hERG Inhibition (hERG; 100): 28
hERG Inhibition (hERG; 1000): 50.4
hERG Inhibition (hERG; column head 500): 38.5

SMILES: Cc1ccc(F)cc1C[C@H](C)Nc1cc[nH]c(=O)c1-c1nc2cc3c(cc2[nH]1)CN(CCN(C)C)C3=O [drawing 365]
hERG Inhibition (hERG; 25): 5.8
hERG Inhibition (hERG; 100): 8.8
hERG Inhibition (hERG; 1000): 6.8
hERG Inhibition (hERG; column head 500): 11.1
hERG Inhibition (hERG; column head 3000): 27.1
hERG Inhibition (hERG; column head 5000): 50.0

SMILES: C[C@@H](Cc1cc(F)cc(F)c1F)Nc1cc[nH]c(=O)c1-c1nc2cc3c(cc2[nH]1)CN(CCN1CCCC1)C3=O [drawing 366]
hERG Inhibition (hERG; 25): 6.00
hERG Inhibition (hERG; 100): 9.7
hERG Inhibition (hERG; 1000): 7.30
hERG Inhibition (hERG; column head 500): 7.10
hERG Inhibition (hERG; column head 3000): 33.20
hERG Inhibition (hERG; column head 5000): 57.80

SMILES: C[C@@H](Cc1cc(F)cc(F)c1F)Nc1cc[nH]c(=O)c1-c1nc2cc3c(cc2[nH]1)CN(CCN(C)C)C3=O [drawing 367]
hERG Inhibition (hERG; 25): 6.60
hERG Inhibition (hERG; 100): 10.20
hERG Inhibition (hERG; column head 500): 13.10
